Test results published in ChEMBL document CHEMBL3045804, “Synthesis and Herbicidal Activity of 2-Benzylamino-4-methyl-6-trifluoromethyl-1, 3, 5-triazune Derivatives” (J Pestic Sci, 1998).

Tested on: Digitaria ciliaris
Assay: Herbicidal activity against Digitaria ciliaris assessed as killing at 100 g/10 acre measured after 3 weeks by pre-emergence/field application test
Format: functional

Question: How did the Activity turn out when `Cc1nc(NCc2ccc(C(C)(C)C)cc2)nc(C(F)(F)F)n1` was run?
Answer: 76%

Question: How did the Activity turn out when `Cc1nc(NCc2ccccc2Cl)nc(C(F)(F)F)n1` was run?
Answer: 1%

Question: `COc1ccc(CNc2nc(C)nc(C(F)(F)F)n2)cc1` was tested. Which Activity did it give?
Answer: 0%

Question: `Cc1nc(NCc2ccc(C(F)(F)F)cc2)nc(C(F)(F)F)n1` was tested. Which Activity did it give?
Answer: 100%

Question: For `Cc1nc(NCc2cccc(Cl)c2)nc(C(F)(F)F)n1`, which Activity is on record?
Answer: 51%

Tested on: Chenopodium album
Assay: Herbicidal activity against Chenopodium album assessed as killing at 100 g/10 acre measured after 3 weeks by pre-emergence/field application test
Format: functional

Question: How did the Activity turn out when `Cc1nc(NCc2ccc(C(C)(C)C)cc2)nc(C(F)(F)F)n1` was run?
Answer: 91%

Question: Which Activity does the source give for `Cc1nc(NCc2ccccc2Cl)nc(C(F)(F)F)n1` here?
Answer: 26%

Question: `COc1ccc(CNc2nc(C)nc(C(F)(F)F)n2)cc1` was tested. Which Activity did it give?
Answer: 76%

Question: For `Cc1nc(NCc2ccc(C(F)(F)F)cc2)nc(C(F)(F)F)n1`, which Activity is on record?
Answer: 91%

Question: How did the Activity turn out when `Cc1nc(NCc2cccc(Cl)c2)nc(C(F)(F)F)n1` was run?
Answer: 76%

Tested on: Stellaria media
Assay: Herbicidal activity against Stellaria media assessed as killing at 400 g/10 acre measured after 3 weeks by post-emergence/foliar application test
Format: functional

Question: With `c1ccc(CNc2ncncn2)cc1` as the molecule, how does the Activity read?
Answer: 0%

Tested on: Pontederia vaginalis
Assay: Herbicidal activity against Monochoria vaginalis assessed as killing at 100 g/10 acre measured after 3 weeks by pre-emergence/paddy application test
Format: functional

Question: With `Cc1nc(NCc2ccc(C(C)(C)C)cc2)nc(C(F)(F)F)n1` as the molecule, how does the Activity read?
Answer: 26%

Question: With `Cc1nc(NCc2ccccc2Cl)nc(C(F)(F)F)n1` as the molecule, how does the Activity read?
Answer: 26%

Question: `COc1ccc(CNc2nc(C)nc(C(F)(F)F)n2)cc1` was tested. Which Activity did it give?
Answer: 51%

Question: Which Activity does the source give for `Cc1nc(NCc2ccc(C(F)(F)F)cc2)nc(C(F)(F)F)n1` here?
Answer: 76%

Question: For `Cc1nc(NCc2cccc(Cl)c2)nc(C(F)(F)F)n1`, which Activity is on record?
Answer: 51%

Tested on: Stellaria media
Assay: Herbicidal activity against Stellaria media assessed as killing at 100 g/10 acre measured after 3 weeks by pre-emergence/field application test
Format: functional

Question: `Cc1nc(NCc2ccc(C(C)(C)C)cc2)nc(C(F)(F)F)n1` was tested. Which Activity did it give?
Answer: 91%

Question: `Cc1nc(NCc2ccccc2Cl)nc(C(F)(F)F)n1` was tested. Which Activity did it give?
Answer: 76%

Question: `COc1ccc(CNc2nc(C)nc(C(F)(F)F)n2)cc1` was tested. Which Activity did it give?
Answer: 91%

Question: How did the Activity turn out when `Cc1nc(NCc2ccc(C(F)(F)F)cc2)nc(C(F)(F)F)n1` was run?
Answer: 100%

Tested on: Rotala indica
Assay: Herbicidal activity against Rotala indica assessed as killing at 800 g/10 acre measured after 3 weeks by pre-emergence/paddy application test
Format: functional

Question: With `c1ccc(CNc2ncncn2)cc1` as the molecule, how does the Activity read?
Answer: 0%

Tested on: Chenopodium album
Assay: Herbicidal activity against Chenopodium album assessed as killing at 100 g/10 acre measured after 3 weeks by post-emergence/foliar application test
Format: functional

Question: Which Activity does the source give for `Cc1nc(NCc2ccc(C(C)(C)C)cc2)nc(C(F)(F)F)n1` here?
Answer: 76%

Question: With `Cc1nc(NCc2ccccc2Cl)nc(C(F)(F)F)n1` as the molecule, how does the Activity read?
Answer: 26%

Question: `COc1ccc(CNc2nc(C)nc(C(F)(F)F)n2)cc1` was tested. Which Activity did it give?
Answer: 100%

Question: Which Activity does the source give for `Cc1nc(NCc2ccc(C(F)(F)F)cc2)nc(C(F)(F)F)n1` here?
Answer: 100%

Question: `Cc1nc(NCc2cccc(Cl)c2)nc(C(F)(F)F)n1` was tested. Which Activity did it give?
Answer: 100%

Tested on: Schoenoplectiella juncoides
Assay: Herbicidal activity against Schoenoplectiella juncoides assessed as killing at 800 g/10 acre measured after 3 weeks by pre-emergence/paddy application test
Format: functional

Question: For `c1ccc(CNc2ncncn2)cc1`, which Activity is on record?
Answer: 0%

Tested on: Stellaria media
Assay: Herbicidal activity against Stellaria media assessed as killing at 800 g/10 acre measured after 3 weeks by pre-emergence/field application test
Format: functional

Question: Which Activity does the source give for `c1ccc(CNc2ncncn2)cc1` here?
Answer: 0%

Tested on: Echinochloa crus-galli
Assay: Herbicidal activity against Echinochloa crus-galli (barnyard grass) assessed as killing at 400 g/10 acre measured after 3 weeks by post-emergence/foliar application test
Format: functional

Question: With `c1ccc(CNc2ncncn2)cc1` as the molecule, how does the Activity read?
Answer: 0%

Tested on: Echinochloa crus-galli
Assay: Herbicidal activity against Echinochloa crus-galli (barnyard grass) assessed as killing at 800 g/10 acre measured after 3 weeks by pre-emergence/field application test
Format: functional

Question: How did the Activity turn out when `c1ccc(CNc2ncncn2)cc1` was run?
Answer: 0%

Tested on: Digitaria ciliaris
Assay: Herbicidal activity against Digitaria ciliaris assessed as killing at 800 g/10 acre measured after 3 weeks by pre-emergence/field application test
Format: functional

Question: How did the Activity turn out when `c1ccc(CNc2ncncn2)cc1` was run?
Answer: 0%

Tested on: Stellaria media
Assay: Herbicidal activity against Stellaria media assessed as killing at 100 g/10 acre measured after 3 weeks by post-emergence/foliar application test
Format: functional

Question: How did the Activity turn out when `Cc1nc(NCc2ccc(C(C)(C)C)cc2)nc(C(F)(F)F)n1` was run?
Answer: 100%

Question: For `Cc1nc(NCc2ccccc2Cl)nc(C(F)(F)F)n1`, which Activity is on record?
Answer: 76%

Question: For `COc1ccc(CNc2nc(C)nc(C(F)(F)F)n2)cc1`, which Activity is on record?
Answer: 100%

Question: With `Cc1nc(NCc2ccc(C(F)(F)F)cc2)nc(C(F)(F)F)n1` as the molecule, how does the Activity read?
Answer: 100%

Question: With `Cc1nc(NCc2cccc(Cl)c2)nc(C(F)(F)F)n1` as the molecule, how does the Activity read?
Answer: 100%

Tested on: Digitaria ciliaris
Assay: Herbicidal activity against Digitaria ciliaris assessed as killing at 100 g/10 acre measured after 3 weeks by post-emergence/foliar application test
Format: functional

Question: How did the Activity turn out when `Cc1nc(NCc2ccc(C(C)(C)C)cc2)nc(C(F)(F)F)n1` was run?
Answer: 0%

Question: With `Cc1nc(NCc2ccccc2Cl)nc(C(F)(F)F)n1` as the molecule, how does the Activity read?
Answer: 0%

Question: `COc1ccc(CNc2nc(C)nc(C(F)(F)F)n2)cc1` was tested. Which Activity did it give?
Answer: 26%

Question: How did the Activity turn out when `Cc1nc(NCc2ccc(C(F)(F)F)cc2)nc(C(F)(F)F)n1` was run?
Answer: 100%

Question: `Cc1nc(NCc2cccc(Cl)c2)nc(C(F)(F)F)n1` was tested. Which Activity did it give?
Answer: 91%

Tested on: Echinochloa crus-galli
Assay: Herbicidal activity against Echinochloa crus-galli (barnyard grass) assessed as killing at 100 g/10 acre measured after 3 weeks by pre-emergence/field application test
Format: functional

Question: With `Cc1nc(NCc2ccc(C(C)(C)C)cc2)nc(C(F)(F)F)n1` as the molecule, how does the Activity read?
Answer: 26%

Question: `Cc1nc(NCc2ccccc2Cl)nc(C(F)(F)F)n1` was tested. Which Activity did it give?
Answer: 1%

Question: Which Activity does the source give for `COc1ccc(CNc2nc(C)nc(C(F)(F)F)n2)cc1` here?
Answer: 76%

Question: Which Activity does the source give for `Cc1nc(NCc2ccc(C(F)(F)F)cc2)nc(C(F)(F)F)n1` here?
Answer: 76%

Question: Which Activity does the source give for `Cc1nc(NCc2cccc(Cl)c2)nc(C(F)(F)F)n1` here?
Answer: 1%

Tested on: Echinochloa oryzicola
Assay: Herbicidal activity against Echinochloa oryzicola assessed as killing at 100 g/10 acre measured after 3 weeks by pre-emergence/paddy application test
Format: functional

Question: How did the Activity turn out when `Cc1nc(NCc2ccc(C(C)(C)C)cc2)nc(C(F)(F)F)n1` was run?
Answer: 26%

Question: `Cc1nc(NCc2ccccc2Cl)nc(C(F)(F)F)n1` was tested. Which Activity did it give?
Answer: 0%

Question: With `COc1ccc(CNc2nc(C)nc(C(F)(F)F)n2)cc1` as the molecule, how does the Activity read?
Answer: 26%

Question: With `Cc1nc(NCc2ccc(C(F)(F)F)cc2)nc(C(F)(F)F)n1` as the molecule, how does the Activity read?
Answer: 51%

Question: `Cc1nc(NCc2cccc(Cl)c2)nc(C(F)(F)F)n1` was tested. Which Activity did it give?
Answer: 51%

Tested on: Schoenoplectiella juncoides
Assay: Herbicidal activity against Schoenoplectiella juncoides assessed as killing at 100 g/10 acre measured after 3 weeks by pre-emergence/paddy application test
Format: functional

Question: How did the Activity turn out when `Cc1nc(NCc2ccc(C(C)(C)C)cc2)nc(C(F)(F)F)n1` was run?
Answer: 1%

Question: With `Cc1nc(NCc2ccccc2Cl)nc(C(F)(F)F)n1` as the molecule, how does the Activity read?
Answer: 1%

Question: How did the Activity turn out when `COc1ccc(CNc2nc(C)nc(C(F)(F)F)n2)cc1` was run?
Answer: 1%

Question: For `Cc1nc(NCc2ccc(C(F)(F)F)cc2)nc(C(F)(F)F)n1`, which Activity is on record?
Answer: 51%

Question: Which Activity does the source give for `Cc1nc(NCc2cccc(Cl)c2)nc(C(F)(F)F)n1` here?
Answer: 51%

Tested on: Chenopodium album
Assay: Herbicidal activity against Chenopodium album assessed as killing at 800 g/10 acre measured after 3 weeks by pre-emergence/field application test
Format: functional

Question: Which Activity does the source give for `c1ccc(CNc2ncncn2)cc1` here?
Answer: 0%

Tested on: Digitaria ciliaris
Assay: Herbicidal activity against Digitaria ciliaris assessed as killing at 400 g/10 acre measured after 3 weeks by post-emergence/foliar application test
Format: functional

Question: For `c1ccc(CNc2ncncn2)cc1`, which Activity is on record?
Answer: 0%

Tested on: Pontederia vaginalis
Assay: Herbicidal activity against Monochoria vaginalis assessed as killing at 800 g/10 acre measured after 3 weeks by pre-emergence/paddy application test
Format: functional

Question: How did the Activity turn out when `c1ccc(CNc2ncncn2)cc1` was run?
Answer: 0%

Tested on: Chenopodium album
Assay: Herbicidal activity against Chenopodium album assessed as killing at 400 g/10 acre measured after 3 weeks by post-emergence/foliar application test
Format: functional

Question: Which Activity does the source give for `c1ccc(CNc2ncncn2)cc1` here?
Answer: 0%

Tested on: Rotala indica
Assay: Herbicidal activity against Rotala indica assessed as killing at 100 g/10 acre measured after 3 weeks by pre-emergence/paddy application test
Format: functional

Question: Which Activity does the source give for `Cc1nc(NCc2ccc(C(C)(C)C)cc2)nc(C(F)(F)F)n1` here?
Answer: 91%

Question: With `Cc1nc(NCc2ccccc2Cl)nc(C(F)(F)F)n1` as the molecule, how does the Activity read?
Answer: 76%

Question: Which Activity does the source give for `COc1ccc(CNc2nc(C)nc(C(F)(F)F)n2)cc1` here?
Answer: 76%

Question: `Cc1nc(NCc2ccc(C(F)(F)F)cc2)nc(C(F)(F)F)n1` was tested. Which Activity did it give?
Answer: 91%

Question: With `Cc1nc(NCc2cccc(Cl)c2)nc(C(F)(F)F)n1` as the molecule, how does the Activity read?
Answer: 100%

Tested on: Echinochloa oryzicola
Assay: Herbicidal activity against Echinochloa oryzicola assessed as killing at 800 g/10 acre measured after 3 weeks by pre-emergence/paddy application test
Format: functional

Question: How did the Activity turn out when `c1ccc(CNc2ncncn2)cc1` was run?
Answer: 0%

Tested on: Echinochloa crus-galli
Assay: Herbicidal activity against Echinochloa crus-galli (barnyard grass) assessed as killing at 100 g/10 acre measured after 3 weeks by post-emergence/foliar application test
Format: functional

Question: Which Activity does the source give for `Cc1nc(NCc2ccc(C(C)(C)C)cc2)nc(C(F)(F)F)n1` here?
Answer: 26%

Question: How did the Activity turn out when `Cc1nc(NCc2ccccc2Cl)nc(C(F)(F)F)n1` was run?
Answer: 0%

Question: Which Activity does the source give for `COc1ccc(CNc2nc(C)nc(C(F)(F)F)n2)cc1` here?
Answer: 26%

Question: `Cc1nc(NCc2ccc(C(F)(F)F)cc2)nc(C(F)(F)F)n1` was tested. Which Activity did it give?
Answer: 1%

Question: How did the Activity turn out when `Cc1nc(NCc2cccc(Cl)c2)nc(C(F)(F)F)n1` was run?
Answer: 51%
